Columns and labels:
[1] = Saturated solubility of the main drug in different media; assay type: physicochemical; conditions: for solubility at 72 h: thermodynamic from solid, 37° C.
Procedure: The solubility of the main drug (5-nitro-8-hydroxyquinoline L-lysinate monohydrate) is greatly affected by pH. In order to select a suitable dissolution medium to achieve the sink condition, the saturated solubility of the main drug in water, pH 1.0 hydrochloric acid solution, pH 4.0 buffer (solution A: water was added to 21 g of citric acid or 19.2 g of anhydrous citric acid to obtain a 1000 mL solution, which was then stored in a refrigerator; solution B: water was added to 71.63 g of disodium hydrogen phosphate to obtain a 1000 mL solution; 61.45 mL of solution A and 38.55 mL of solution B were mixed and shaked well to obtain the pH 4.0 buffer) and pH 6.8 PBS buffer (118 mL of 0.2 mol/L sodium hydroxide solution was added to 250 mL of 0.2 mol/L phosphoric acid solution, the resulting solution was diluted with water to 1000 mL and shaked well to obtain the pH 6.8 PBS buffer) were investigated. The specific method: excessive main drug (about 1.5 g) was added to 10 mL of the above four media, respectively; the resulting mixture was placed in a SHA-B multifunctional water bath constant temperature shaker (manufacturer: Zenith Lab (Jiangsu) Co., Ltd.) at water bath temperature of 37° C. and shaked at a speed of 280 rpm for 72 hours; the solution was filtered through a 0.45 μm nitrocellulose membrane (manufacturer: Tianjin Jinteng Experimental Equipment Co., Ltd.); and the filtrate was measured with a UV-2700 ultraviolet-visible spectrophotometer (manufacturer: Shimadzu, Japan), detection wavelength: 369 nm.

[2] = compared with nitroxoline; in words; cited from earlier work

O=[N+]([O-])c1ccc(O)c2ncccc12 [main drug, 5-nitro-8-hydroxyquinoline L-lysinate monohydrate]
Whether the sink condition was achieved ([1]; Water): Yes | solubility at 72 h ([1]; aqueous buffer, pH 6.8 PBS buffer): 15700 µg/mL | Whether the sink condition was achieved ([1]; pH 1.0 hydrochloric acid solution): Yes | Whether the sink condition was achieved ([1]; pH 4.0 buffer): No | solubility at 72 h ([1]; pH 4.0 buffer (citric acid / disodium hydrogen phosphate), aqueous buffer, pH 4.0 buffer): 430 µg/mL | Whether the sink condition was achieved ([1]; pH 6.8 PBS buffer): Yes | solubility at 72 h ([1]; simulated gastric fluid, pH 1.0 hydrochloric acid solution): 1540 µg/mL | solubility at 72 h ([1]; Water): 100000 µg/mL

O=[N+]([O-])c1ccc(O)c2ncccc12 [nitroxoline lysinate]
water solubility [2]: better than that of nitroxoline
